Experimental findings from ChEMBL document CHEMBL5338749, “Rapid Elaboration of Fragments into Leads Applied to Bromodomain-3 Extra-Terminal Domain” (J Med Chem, 2023) are described below.

Assay [1] deals with T1, Bromodomain-containing protein 3 (Homo sapiens, UniProt Q15059). The experiment in a line: Binding affinity to biotinylated BRD3-ET domain (unknown origin) expressed in Escherichia coli Rosetta (DE3) pLysS assessed as dissociation off-rate constant at 4 degreeC by SPR analysis. In general terms: SPR reads the build-up and loss of mass on a sensor chip optically.
Target sequence in this assay (Q15059 2-726 limits assumed): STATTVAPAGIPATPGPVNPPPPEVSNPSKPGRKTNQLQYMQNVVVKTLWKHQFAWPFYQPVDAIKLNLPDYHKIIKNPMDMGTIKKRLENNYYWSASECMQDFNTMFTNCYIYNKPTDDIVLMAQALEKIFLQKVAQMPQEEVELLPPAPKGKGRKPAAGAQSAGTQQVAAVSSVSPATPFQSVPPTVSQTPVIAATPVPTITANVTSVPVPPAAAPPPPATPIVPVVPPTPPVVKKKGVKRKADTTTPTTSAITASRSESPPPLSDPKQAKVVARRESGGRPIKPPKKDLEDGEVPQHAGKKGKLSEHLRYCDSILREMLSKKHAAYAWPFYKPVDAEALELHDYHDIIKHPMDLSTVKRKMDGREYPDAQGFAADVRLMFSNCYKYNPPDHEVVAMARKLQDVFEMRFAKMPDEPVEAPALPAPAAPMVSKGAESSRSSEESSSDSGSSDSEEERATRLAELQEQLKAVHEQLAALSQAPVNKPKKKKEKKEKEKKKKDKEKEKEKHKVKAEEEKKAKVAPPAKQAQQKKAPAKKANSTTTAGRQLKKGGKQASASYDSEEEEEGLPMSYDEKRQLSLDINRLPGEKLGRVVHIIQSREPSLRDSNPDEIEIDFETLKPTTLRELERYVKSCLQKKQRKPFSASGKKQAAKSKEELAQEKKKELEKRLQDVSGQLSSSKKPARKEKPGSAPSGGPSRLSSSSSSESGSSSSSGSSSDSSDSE
Assay [2] deals with T1, Bromodomain-containing protein 3. The experiment in a line: Binding affinity to 15N-labeled recombinant BRD3-ET domain (unknown origin) expressed in Escherichia coli Rosetta (DE3) pLysS assessed as dissociation constant by […] HSQC NMR analysis.
Target sequence in this assay (Q15059 whole entry, the tested form may be a part): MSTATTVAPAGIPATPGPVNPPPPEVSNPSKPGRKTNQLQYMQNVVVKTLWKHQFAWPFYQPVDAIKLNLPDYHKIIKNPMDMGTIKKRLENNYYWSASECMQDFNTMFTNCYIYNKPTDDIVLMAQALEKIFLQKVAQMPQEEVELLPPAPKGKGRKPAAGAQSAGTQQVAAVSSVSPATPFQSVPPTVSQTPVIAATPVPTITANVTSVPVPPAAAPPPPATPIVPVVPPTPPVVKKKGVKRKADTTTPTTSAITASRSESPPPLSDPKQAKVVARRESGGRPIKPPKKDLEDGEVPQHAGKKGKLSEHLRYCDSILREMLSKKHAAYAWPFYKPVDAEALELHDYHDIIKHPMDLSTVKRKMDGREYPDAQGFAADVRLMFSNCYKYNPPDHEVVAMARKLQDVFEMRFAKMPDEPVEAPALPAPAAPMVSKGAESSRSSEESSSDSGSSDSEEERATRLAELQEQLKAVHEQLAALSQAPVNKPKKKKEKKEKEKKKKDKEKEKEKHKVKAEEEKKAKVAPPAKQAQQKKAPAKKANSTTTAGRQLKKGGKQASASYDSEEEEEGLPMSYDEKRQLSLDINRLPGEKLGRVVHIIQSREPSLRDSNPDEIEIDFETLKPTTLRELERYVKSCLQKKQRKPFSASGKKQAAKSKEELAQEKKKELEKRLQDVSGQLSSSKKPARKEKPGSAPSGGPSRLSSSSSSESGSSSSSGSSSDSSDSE
Assay [3] shares this target. The assay is described as follows: Binding affinity to biotinylated BRD3-ET domain (unknown origin) expressed in Escherichia coli Rosetta (DE3) pLysS assessed as dissociation constant at 4 degreeC by SPR analysis.
Target sequence in this assay (Q15059 whole entry, the tested form may be a part): as above
For assay [4] the target is unchanged. The assay is described as follows: Binding affinity to recombinant BRD3-ET domain (unknown origin) expressed in Escherichia coli Rosetta (DE3) pLysS assessed as dissociation constant by 1H- NMR analysis.
Target sequence in this assay (Q15059 whole entry, the tested form may be a part): as above
Assay [5] shares this target. The experiment in a line: Binding affinity to recombinant BRD3-ET domain (unknown origin) expressed in Escherichia coli Rosetta (DE3) pLysS assessed as dissociation constant by 19F- NMR analysis.
Target sequence in this assay (Q15059 whole entry, the tested form may be a part): as above

Each structure is given as a SMILES string. pKd: −log10 of the molar value. “And” between values parts separate entries of the source, which are not always exact repeats. Equal entries are not always repeated.

For `CC(C)C[C@H](N)CC(=O)NC1CCCc2c1[nH]c1ccc(F)cc21` (stereo not given in full) [listing 1 of 3 here], in assay [1], the K was 0.26 s⁻¹ and 0.27 s⁻¹.

On to `CC(C)(C)OC(=O)N1CCC(CNC2CCCc3c2[nH]c2ccc(F)cc32)C1` (stereo not given), for which the pKd – broadly, the Kd on a negative log10 scale, so that one unit is a factor of ten – is 4.52 in assay [2] and 4.03 in assay [3].

For the molecule `Fc1ccc2[nH]c3c(c2c1)CCCC3NCCC1CCCNC1` (stereo not given) [listing 1 of 3 here], the pKd in assay [3] was 5.11.

`CC(C)C[C@H](N)CC(=O)NC1CCCc2c1[nH]c1ccc(F)cc21` (stereo not given in full) [listing 2 of 3 here]: the pKd in assay [3] was 4.96.

For the molecule `O=C(CC1CCCNC1)NC1CCCc2c1[nH]c1ccc(F)cc21` (stereo not given), the pKd in assay [4] was 4.48; in assay [3], 4.60.

Regarding `Fc1ccc2[nH]c3c(c2c1)CCCC3NCC1CCNC1` (stereo not given) [listing 1 of 3 here], the values for the pKd in assay [5] and in assay [4] were 4.17 and 4.03, respectively.

For the molecule `CC(=O)NC1CCCc2c1[nH]c1ccc(F)cc21` (stereo not given), the values for the pKd in assay [2] and in assay [3] were 3.82 and 3.59, respectively.

With `CC(C)C[C@H](N)CC(=O)NC1CCCc2c1[nH]c1ccc(F)cc21` (stereo not given in full) [listing 3 of 3 here], the pKd in assay [4] was 4.41.

In the case of `OC1CCCc2c1[nH]c1ccccc21` (stereo not given), the pKd in assay [2] was 3.64; in assay [3] it was 3.42.

Regarding `Fc1ccc2[nH]c3c(c2c1)CCCC3NCC1CCNC1` (stereo not given) [listing 2 of 3 here], the K in assay [1] is 0.22 s⁻¹ and 0.33 s⁻¹.

`O=C(NC1CCCc2c1[nH]c1ccc(F)cc21)[C@@H]1C=CCN1` (stereo not given in full) [listing 1 of 3 here]: the pKd in assay [2] was 4.19.

Turning to `Fc1ccc2[nH]c3c(c2c1)CCCC3NCC1CCNC1` (stereo not given) [listing 3 of 3 here], the pKd in assay [3] is 4.96.

Regarding `Fc1ccc2[nH]c3c(c2c1)CCCC3NCC1CCNCC1` (stereo not given) [listing 1 of 3 here], the pKd in assay [3] was 4.77.

Regarding `Fc1ccc2[nH]c3c(c2c1)CCCC3NCC1CCNCC1` (stereo not given) [listing 2 of 3 here], the K in assay [1] was 0.3 s⁻¹ and 0.49 s⁻¹.

As to `Fc1ccc2[nH]c3c(c2c1)CCCC3NCCC1CCCNC1` (stereo not given) [listing 2 of 3 here], the pKd in assay [5] is 4.74; in assay [4], 4.62.

`O=C(NC1CCCc2c1[nH]c1ccc(F)cc21)C1CCNC1` (stereo not given): the pKd in assay [4] was 4.27; in assay [3], 4.51.

As for `Fc1ccc2[nH]c3c(c2c1)CCCC3NCCC1CCCNC1` (stereo not given) [listing 3 of 3 here], the K in assay [1] came to 0.28 s⁻¹.

Take `O=C(NC1CCCc2c1[nH]c1ccc(F)cc21)[C@@H]1C=CCN1` (stereo not given in full) [listing 2 of 3 here]: the pKd in assay [3] is 4.33.

Regarding `CC(C)(C)OC(=O)N1CCC(CNC2CCCc3c2[nH]c2ccc(F)cc32)CC1` (stereo not given), the values for the pKd in assay [2] and in assay [3] were 4.51 and 4.07, respectively.

For the molecule `Fc1ccc2[nH]c3c(c2c1)CCCC3NCC1CCNCC1` (stereo not given) [listing 3 of 3 here], the pKd in assay [5] was 4.66; in assay [4], 4.21.

Regarding `O=C(NC1CCCc2c1[nH]c1ccc(F)cc21)[C@@H]1C=CCN1` (stereo not given in full) [listing 3 of 3 here], the K in assay [1] is 0.13 s⁻¹ and 0.22 s⁻¹.
